From patent publication US20230365589A1, “NOVEL AMINE DERIVATIVES” (Sumitomo Pharma Co., Ltd., priority 2020, published 2023)
Where two headings read alike, the source gives them in different places.

Key:
Type in all cases: biochemical
[1] = molecular target: T1, DYRK1B (Homo sapiens, UniProt Q9Y463); assay: Inhibition test on activity of DYRK family, mobility shift assay (MSA): DYRK1B
T1 construct: purchased Carna Biosciences, Inc. 04-131
Method: [Inhibition Test on Activity of DYRK Family (DYRK1A, DYRK1B, DYRK2, and DYRK3)]
The kinase activity was measured by mobility shift assay (MSA) method using QuickScout Screening Assist™ MSA (commercially available kit manufactured by Carna Biosciences, Inc.). The substrate of the kinase reaction used was an FITC-labeled DYRKtide peptide included in the kit. An assay buffer [20 mM HEPES, 0.01% Triton X-100™, 2 mM dithiothreitol, pH 7.5]was used to create a substrate mixture solution with a substrate (4 μM), MgCl2(20 mM), and ATP (DYRK1A: 100 μM; DYRK1B: 200 μM; DYRK2: 40 μM; and DYRK3: 20 μM). In addition, kinases (DYRK1A: manufactured by Carna Biosciences, Inc., Cat. No. 04-130; DYRK1B: manufactured by Carna Biosciences, Inc., Cat. No. 04-131; DYRK2; manufactured by Carna Biosciences, Inc., Cat. No. 04-132; and DYRK3; manufactured by Carna Biosciences, Inc., Cat. No. 04-133) were diluted with the assay buffer to prepare enzyme solutions (DYRK1A: 0.2 ng/μL; DYRK1B: 0.08 ng/μL; DYRK2: 0.04 ng/μL; and DYRK3: 0.25 ng/μL). The 10 mM solution of the test compound in DMSO was further diluted with DMSO to 10 levels of the concentration (0.00003 mM, 0.0001 mM, 0.0003 mM, 0.001 mM, 0.003 mM, 0.01 mM, 0.03 mM, 0.1 mM, 0.3 mM, and 1 mM), each of which was subjected to 25-fold dilution with the assay buffer to obtain a drug solution (4% DMSO solution). 5 μL of the drug solution or a control solution (4% DMSO-assay buffer), 5 μL of the substrate mixture solution, and 10 μL of the enzyme solution were mixed in the wells of a polypropylene 384-well plate and allowed to react at room temperature for 1 hour, and then the reaction was quenched by adding 60 μL of the termination buffer included in the kit. Subsequently, the quantities of the substrates (S) and the phosphorylated substrate (P) in the reaction solution were measured using LabChip EZ Reader II system (manufactured by Caliper Life Sciences) according to the protocol of the assay kit.
The heights of the peaks of the “substrate” and the “phosphorylated substrate” were expressed as S and P, respectively, and a blank containing the assay buffer instead of the enzyme solution was also measured.
The inhibition rate (%) of the test compound was calculated according to the following equation:
Inhibition rate (%)=(1−(C−A)/(B−A))×100 • wherein, A, B, and C represent P/(P+S) of the blank well, P/(P+S) of the control solution well, and P/(P+S) of the compound-containing well, respectively.
The IC50 value was calculated via a regression analysis of the inhibition rate and the test compound concentration (logarithmic value).
The inhibiting activities of representative compounds of the present invention are shown against DYRK1A, DYRK1B, DYRK2, and DYRK3 in Tables.

[2] = molecular target: T2, DYRK3 (Homo sapiens, UniProt O43781); assay: Inhibition test on activity of DYRK family, mobility shift assay (MSA): DYRK3
T2 construct: purchased Carna Biosciences, Inc. 04-133
T2 sequence (O43781 1-568 isoform O43781-2): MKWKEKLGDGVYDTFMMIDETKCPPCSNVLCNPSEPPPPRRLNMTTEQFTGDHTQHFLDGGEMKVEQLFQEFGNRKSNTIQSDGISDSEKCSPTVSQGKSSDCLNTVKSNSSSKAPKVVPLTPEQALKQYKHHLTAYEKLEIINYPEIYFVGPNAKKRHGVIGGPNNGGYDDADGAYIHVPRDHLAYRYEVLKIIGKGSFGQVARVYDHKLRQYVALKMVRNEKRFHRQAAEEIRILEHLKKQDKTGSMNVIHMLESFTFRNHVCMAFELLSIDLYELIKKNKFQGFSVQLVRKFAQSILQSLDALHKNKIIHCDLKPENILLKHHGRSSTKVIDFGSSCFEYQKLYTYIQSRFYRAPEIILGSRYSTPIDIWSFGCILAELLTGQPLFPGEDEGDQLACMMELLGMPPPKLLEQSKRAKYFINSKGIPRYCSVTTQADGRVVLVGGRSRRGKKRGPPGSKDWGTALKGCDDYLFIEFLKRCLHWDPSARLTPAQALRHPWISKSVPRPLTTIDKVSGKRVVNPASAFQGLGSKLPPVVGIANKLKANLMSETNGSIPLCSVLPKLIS
Method in brief: (§1)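 Mobility-shift readout of FITC-DYRKtide phosphorylation in 20 mM HEPES pH 7.5. The substrate mix held 4 µM peptide, 20 mM MgCl2 and ATP at 100 (1A), 200 (1B), 40 (2) or 20 µM (3). Reaction 1 h at room temperature; IC50 from regression of P/(P+S)-based inhibition vs log concentration.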

[3] = molecular target: T3, DYRK1A (Homo sapiens, UniProt Q13627); assay: Inhibition test on activity of DYRK family, mobility shift assay (MSA): DYRK1A
T3 construct: purchased Carna Biosciences, Inc. 04-130
Method in brief: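 Mobility shift assay with recombinant DYRK1A (0.2 ng/μL enzyme solution), FITC-DYRKtide substrate (4 μM in substrate mix), 100 μM ATP in substrate mix, HEPES pH 7.5 buffer with MgCl2; 1 h at room temperature. Phosphorylated vs unphosphorylated peptide peaks quantified; IC50 from regression of inhibition rate against log concentration.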

[4] = molecular target: T4, DYRK2 (Homo sapiens, UniProt Q92630); assay: Inhibition test on activity of DYRK family, mobility shift assay (MSA): DYRK2
T4 construct: purchased Carna Biosciences, Inc. 04-132
T4 sequence (Q92630 74-601 limits assumed): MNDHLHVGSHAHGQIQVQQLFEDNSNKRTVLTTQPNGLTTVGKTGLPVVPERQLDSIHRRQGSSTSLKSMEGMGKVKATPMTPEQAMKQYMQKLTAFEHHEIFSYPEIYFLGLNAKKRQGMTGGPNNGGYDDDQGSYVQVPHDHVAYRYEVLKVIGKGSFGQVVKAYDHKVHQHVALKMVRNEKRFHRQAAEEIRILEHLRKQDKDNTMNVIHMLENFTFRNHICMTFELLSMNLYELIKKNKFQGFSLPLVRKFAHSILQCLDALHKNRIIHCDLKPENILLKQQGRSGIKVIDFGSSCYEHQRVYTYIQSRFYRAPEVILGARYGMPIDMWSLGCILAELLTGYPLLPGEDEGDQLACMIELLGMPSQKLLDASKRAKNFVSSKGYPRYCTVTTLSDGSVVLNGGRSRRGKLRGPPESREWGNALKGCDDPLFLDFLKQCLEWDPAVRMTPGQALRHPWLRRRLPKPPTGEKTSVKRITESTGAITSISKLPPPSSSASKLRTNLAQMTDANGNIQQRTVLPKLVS
Method in brief: as §1

[5] = MSA, FITC-labeled DYRKtide peptide, ATP 200 μM, read-out: Inhibitory activity DYRK 1B (IC50 class)
[6] = MSA, FITC-labeled DYRKtide peptide, ATP 20 μM, read-out: Inhibitory activity DYRK 3 (IC50 class)
[7] = MSA, FITC-labeled DYRKtide peptide, ATP 100 μM, read-out: Inhibitory activity DYRK 1A (IC50 class)
[8] = MSA, FITC-labeled DYRKtide peptide, ATP 40 μM, read-out: Inhibitory activity DYRK 2 (IC50 class)
[9] = read-out: Inhibitory activity DYRK 1B
[10] = read-out: Inhibitory activity DYRK 3
[11] = read-out: Inhibitory activity DYRK 1A
[12] = read-out: Inhibitory activity DYRK 2

T1 sequence (Q9Y463 whole entry): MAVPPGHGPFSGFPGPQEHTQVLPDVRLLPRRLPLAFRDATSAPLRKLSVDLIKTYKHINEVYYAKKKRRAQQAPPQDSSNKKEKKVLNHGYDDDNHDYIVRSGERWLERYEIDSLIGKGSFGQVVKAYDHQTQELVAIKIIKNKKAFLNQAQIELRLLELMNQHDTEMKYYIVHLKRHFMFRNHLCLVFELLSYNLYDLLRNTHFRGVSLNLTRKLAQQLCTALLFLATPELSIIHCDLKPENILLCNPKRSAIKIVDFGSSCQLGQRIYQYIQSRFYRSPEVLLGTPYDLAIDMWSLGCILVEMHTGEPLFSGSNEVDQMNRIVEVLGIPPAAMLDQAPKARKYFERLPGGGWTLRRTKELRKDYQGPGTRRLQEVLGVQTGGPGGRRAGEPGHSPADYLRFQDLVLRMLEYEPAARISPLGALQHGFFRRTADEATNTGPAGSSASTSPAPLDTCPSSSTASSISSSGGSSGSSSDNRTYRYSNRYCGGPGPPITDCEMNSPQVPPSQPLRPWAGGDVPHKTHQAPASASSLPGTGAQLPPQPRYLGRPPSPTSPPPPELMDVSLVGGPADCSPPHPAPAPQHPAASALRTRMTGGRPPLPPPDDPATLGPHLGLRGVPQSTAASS

Row | Structure (SMILES) | IC50 [1, 5] [nM] | IC50 [2, 6] [nM] | IC50 [3, 7] [nM] | IC50 [4, 8] [nM] | IC50 [1, 9] [nM] | IC50 [2, 10] [nM] | IC50 [3, 11] [nM] | IC50 [4, 12] [nM]
1 | C[C@H]1NC(=O)N(c2nc3c4c(ccc3s2)OCC4)[C@@H]1CN1CCOCC1 [Example 24, (4R,5R)-1-(7,8-dihydrofuro[3,2-e][1,3]benzothiazol-2-yl)-4-methyl-5-[(morpholin-4-yl)methyl]imidazolidin-2-one] | 10 to 100 | ≥ 1000 | 10 to 100 | ≥ 1000 | – | – | – | –
2 | C[C@H]1C[C@@H]2[C@H](CO1)NC(=O)N2c1nc2c3c(ccc2s1)OCCO3 [Example 39, (3aR,6S,7aR)-1-(7,8-dihydro[1,4]dioxino[2,3-e][1,3]benzothiazol-2-yl)-6-methylhexahydropyrano[3,4-d]imidazol-2(3H)-one] | < 10 | 100 to 1000 | < 10 | 100 to 1000 | – | – | – | –
3 | O=C1NC2CNCC2N1c1nc2c3c(ccc2s1)OCC3 (stereo not drawn) [Example 3] | 100 to 1000 | 100 to 1000 | 100 to 1000 | ≥ 1000 | – | – | – | –
4 | CN1CC[C@@H]2NC(=O)N(c3nc4c5c(ccc4s3)OCC5)[C@@H]2C1 (single isomer, unassigned) [Example 28] | 10 to 100 | ≥ 1000 | 10 to 100 | ≥ 1000 | – | – | – | –
5 | O=C1N[C@H]2CO[C@@H](CF)C[C@H]2N1c1nc2c3c(ccc2s1)OCCO3 [Example 41, (3aR,6R,7aR)-1-(7,8-dihydro[1,4]dioxino[2,3-e][1,3]benzothiazol-2-yl)-6-(fluoromethyl)hexahydropyrano[3,4-d]imidazol-2(3H)-one] | < 10 | 10 to 100 | < 10 | 100 to 1000 | – | – | – | –
6 | CC[C@H]1C[C@@H]2[C@H](CO1)NC(=O)N2c1nc2c3c(ccc2s1)OCC3 [Example 42, (3aR,6S,7aR)-1-(7,8-dihydrofuro[3,2-e][1,3]benzothiazol-2-yl)-6-ethylhexahydropyrano[3,4-d]imidazol-2(3H)-one] | < 10 | 100 to 1000 | < 10 | 100 to 1000 | – | – | – | –
7 | O=C1N[C@H]2CCN(C3CC3)C[C@H]2N1c1nc2c3c(ccc2s1)OCCO3 (single isomer, unassigned) [Example 34] | 10 to 100 | ≥ 1000 | < 10 | ≥ 1000 | – | – | – | –
8 | CC[C@H]1C[C@@H]2[C@H](CO1)NC(=O)N2c1nc2c3c(ccc2s1)OCCO3 [Example 43, (3aR,6S,7aR)-1-(7,8-dihydro[1,4]dioxino[2,3-e][1,3]benzothiazol-2-yl)-6-ethylhexahydropyrano[3,4-d]imidazol-2(3H)-one] | < 10 | 100 to 1000 | < 10 | 100 to 1000 | – | – | – | –

Other lines, results leading:

Row | IC50 [1, 5] [nM] | IC50 [2, 6] [nM] | IC50 [3, 7] [nM] | IC50 [4, 8] [nM] | IC50 [1, 9] [nM] | IC50 [2, 10] [nM] | IC50 [3, 11] [nM] | IC50 [4, 12] [nM] | Structure (SMILES)
9 | 10 to 100 | 10 to 100 | < 10 | 10 to 100 | – | – | – | – | O=C1N[C@H]2CO[C@H](CF)[C@H]2N1c1nc2c3c(ccc2s1)OCC3 [Example 159, (3aR,6S,6aS)-1-(7,8-dihydrofuro[3,2-e][1,3]benzothiazol-2-yl)-6-(fluoromethyl)tetrahydro-1H-furo[3,4-d]imidazol-2(3H)-one]
10 | – | – | – | – | 10 to 100 | ≥ 1000 | < 10 | ≥ 1000 | N#CCN1CC[C@@H]2NC(=O)N(c3nc4c5c(ccc4s3)OCC5)[C@@H]2C1 (racemic) [Example 100, rac-[(3aR,7aS)-3-(7,8-dihydrofuro[3,2-e][1,3]benzothiazol-2-yl)-2-oxooctahydro-5H-imidazo[4,5-c]pyridin-5-yl]acetonitrile]
11 | 10 to 100 | 100 to 1000 | 10 to 100 | 100 to 1000 | – | – | – | – | CN1CC[C@@H]2[C@H](C1)NC(=O)N2c1nc2c3c(ccc2s1)OCC3 (relative stereo) [Example 9, cis-1-(7,8-dihydrofuro[3,2-e][1,3]benzothiazol-2-yl)-5-methyloctahydro-2H-imidazo[4,5-c]pyridin-2-one]
12 | – | – | – | – | < 10 | 100 to 1000 | < 10 | 100 to 1000 | O=C1N[C@H]2COCC[C@H]2N1c1nc2c3c(ccc2s1)OCC3 [Example 122, (3aR,7aR)-1-(7,8-dihydrofuro[3,2-e][1,3]benzothiazol-2-yl)hexahydropyrano[3,4-d]imidazol-2(3H)-one]
13 | 10 to 100 | ≥ 1000 | 10 to 100 | ≥ 1000 | – | – | – | – | COCCN1CC[C@@H]2NC(=O)N(c3nc4c5c(ccc4s3)OCC5)[C@@H]2C1 (relative stereo) [Example 8, cis-3-(7,8-Dihydrofuro[3,2-e][1,3]benzothiazol-2-yl)-5-(2-methoxyethyl)octahydro-2H-imidazo[4,5-c]pyridin-2-one]
14 | ≥ 1000 | ≥ 1000 | ≥ 1000 | ≥ 1000 | – | – | – | – | CN1CC[C@H]2NC(=O)N(c3nc4c5c(ccc4s3)OCC5)[C@H]2C1 (single isomer, unassigned) [Example 27]
15 | < 10 | 10 to 100 | < 10 | 10 to 100 | – | – | – | – | O=C1N[C@H]2CO[C@@H](CF)C[C@H]2N1c1nc2c3c(ccc2s1)OCO3 [Example 140, (3aR,6R,7aR)-1-(2H-[1,3]dioxolo[4,5-e][1,3]benzothiazol-7-yl]-6-(fluoromethyl)hexahydropyrano[3,4-d]imidazol-2(3H)-one]
